Data as given in patent US20260130395A1, “Water Dispersible Botanical Compositions” (Aquila Black Limited, priority 2021, published 2026).

Assay: Stability of cannabinoid compounds and Vitamin E components in Beverage 1 (AB White) by LCMSMS
Format: physicochemical
Conditions: for Stability of Plant-Derived Cannabinoid Compounds in AB White, 8° C.: AB White stored at 8° C.; for Stability of Plant-Derived Cannabinoid Compounds in AB White, 21-25° C.: AB White stored at 21-25° C.

Structure (SMILES): CCCCCc1cc2c(c(O)c1C(=O)O)[C@@H]1C=C(C)CC[C@H]1C(C)(C)O2 [D9 THCA, delta-9-tetrahydrocannabinolic acid]
- Stability of Plant-Derived Cannabinoid Compounds in AB White, 8° C. (29 days): 0.939 µg/mL
- Stability of Plant-Derived Cannabinoid Compounds in AB White, 8° C. (30 days): 0.955 µg/mL
- Stability of Plant-Derived Cannabinoid Compounds in AB White, 8° C. (60 days): 0.914 µg/mL
- Stability of Plant-Derived Cannabinoid Compounds in AB White, 8° C. (90 days): 0.948 µg/mL
- Stability of Plant-Derived Cannabinoid Compounds in AB White, 8° C. (120 days): 0.932 µg/mL
- Stability of Plant-Derived Cannabinoid Compounds in AB White, 8° C. (150 days): 0.952 µg/mL
- Stability of Plant-Derived Cannabinoid Compounds in AB White, 8° C. (180 days): 0.941 µg/mL
- Stability of Plant-Derived Cannabinoid Compounds in AB White, 8° C. (210 days): 0.923 µg/mL
- Stability of Plant-Derived Cannabinoid Compounds in AB White, 8° C. (240 days): 0.932 µg/mL
- Stability of Plant-Derived Cannabinoid Compounds in AB White, 8° C. (270 days): 0.933 µg/mL
- Stability of Plant-Derived Cannabinoid Compounds in AB White, 8° C. (300 days): 0.939 µg/mL
- Stability of Plant-Derived Cannabinoid Compounds in AB White, 8° C. (330 days): 0.909 µg/mL
- Stability of Plant-Derived Cannabinoid Compounds in AB White, 8° C. (360 days): 0.913 µg/mL
- Stability of Plant-Derived Cannabinoid Compounds in AB White, 8° C. (390 days): 0.923 µg/mL
- Stability of Plant-Derived Cannabinoid Compounds in AB White, 8° C. (420 days): 0.916 µg/mL
- Stability of Plant-Derived Cannabinoid Compounds in AB White, 8° C. (450 days): 0.923 µg/mL
- Stability of Plant-Derived Cannabinoid Compounds in AB White, 8° C. (480 days): 0.905 µg/mL
- Stability of Plant-Derived Cannabinoid Compounds in AB White, 8° C. (510 days): 0.873 µg/mL
- Stability of Plant-Derived Cannabinoid Compounds in AB White, 8° C. (540 days): 0.877 µg/mL
- Stability of Plant-Derived Cannabinoid Compounds in AB White, 8° C. (570 days): 0.872 µg/mL
- Stability of Plant-Derived Cannabinoid Compounds in AB White, 21-25° C. (0 days): 0.950 µg/mL
- Stability of Plant-Derived Cannabinoid Compounds in AB White, 21-25° C. (1 days): 0.960 µg/mL
- Stability of Plant-Derived Cannabinoid Compounds in AB White, 21-25° C. (2 days): 0.938 µg/mL
- Stability of Plant-Derived Cannabinoid Compounds in AB White, 21-25° C. (3 days): 0.920 µg/mL
- Stability of Plant-Derived Cannabinoid Compounds in AB White, 21-25° C. (5 days): 0.958 µg/mL
- Stability of Plant-Derived Cannabinoid Compounds in AB White, 21-25° C. (8 days): 0.937 µg/mL
- Stability of Plant-Derived Cannabinoid Compounds in AB White, 21-25° C. (9 days): 0.926 µg/mL
- Stability of Plant-Derived Cannabinoid Compounds in AB White, 21-25° C. (10 days): 0.935 µg/mL
- Stability of Plant-Derived Cannabinoid Compounds in AB White, 21-25° C. (11 days): 0.949 µg/mL
- Stability of Plant-Derived Cannabinoid Compounds in AB White, 21-25° C. (12 days): 0.935 µg/mL
- Stability of Plant-Derived Cannabinoid Compounds in AB White, 21-25° C. (15 days): 0.948 µg/mL
- Stability of Plant-Derived Cannabinoid Compounds in AB White, 21-25° C. (16 days): 0.921 µg/mL
- Stability of Plant-Derived Cannabinoid Compounds in AB White, 21-25° C. (17 days): 0.919 µg/mL
- Stability of Plant-Derived Cannabinoid Compounds in AB White, 21-25° C. (18 days): 0.928 µg/mL
- Stability of Plant-Derived Cannabinoid Compounds in AB White, 21-25° C. (19 days): 0.917 µg/mL
- Stability of Plant-Derived Cannabinoid Compounds in AB White, 21-25° C. (22 days): 0.947 µg/mL
- Stability of Plant-Derived Cannabinoid Compounds in AB White, 21-25° C. (23 days): 0.924 µg/mL
- Stability of Plant-Derived Cannabinoid Compounds in AB White, 21-25° C. (24 days): 0.927 µg/mL
- Stability of Plant-Derived Cannabinoid Compounds in AB White, 21-25° C. (25 days): 0.948 µg/mL
- Stability of Plant-Derived Cannabinoid Compounds in AB White, 21-25° C. (26 days): 0.921 µg/mL
- Stability of Plant-Derived Cannabinoid Compounds in AB White, 21-25° C. (29 days): 0.922 µg/mL
- Stability of Plant-Derived Cannabinoid Compounds in AB White, 21-25° C. (30 days): 0.934 µg/mL
- Stability of Plant-Derived Cannabinoid Compounds in AB White, 21-25° C. (60 days): 0.896 µg/mL
- Stability of Plant-Derived Cannabinoid Compounds in AB White, 21-25° C. (90 days): 0.892 µg/mL
- Stability of Plant-Derived Cannabinoid Compounds in AB White, 21-25° C. (120 days): 0.894 µg/mL
- Stability of Plant-Derived Cannabinoid Compounds in AB White, 21-25° C. (150 days): 0.934 µg/mL
- Stability of Plant-Derived Cannabinoid Compounds in AB White, 21-25° C. (180 days): 0.945 µg/mL
- Stability of Plant-Derived Cannabinoid Compounds in AB White, 21-25° C. (210 days): 0.913 µg/mL
- Stability of Plant-Derived Cannabinoid Compounds in AB White, 21-25° C. (240 days): 0.892 µg/mL
- Stability of Plant-Derived Cannabinoid Compounds in AB White, 21-25° C. (270 days): 0.905 µg/mL
- Stability of Plant-Derived Cannabinoid Compounds in AB White, 21-25° C. (300 days): 0.888 µg/mL
- Stability of Plant-Derived Cannabinoid Compounds in AB White, 21-25° C. (330 days): 0.894 µg/mL
- Stability of Plant-Derived Cannabinoid Compounds in AB White, 21-25° C. (360 days): 0.925 µg/mL
- Stability of Plant-Derived Cannabinoid Compounds in AB White, 21-25° C. (390 days): 0.907 µg/mL
- Stability of Plant-Derived Cannabinoid Compounds in AB White, 21-25° C. (420 days): 0.909 µg/mL
- Stability of Plant-Derived Cannabinoid Compounds in AB White, 21-25° C. (450 days): 0.921 µg/mL
- Stability of Plant-Derived Cannabinoid Compounds in AB White, 21-25° C. (480 days): 0.873 µg/mL
- Stability of Plant-Derived Cannabinoid Compounds in AB White, 21-25° C. (510 days): 0.903 µg/mL
- Stability of Plant-Derived Cannabinoid Compounds in AB White, 21-25° C. (540 days): 0.877 µg/mL
- Stability of Plant-Derived Cannabinoid Compounds in AB White, 21-25° C. (570 days): 0.877 µg/mL
